Experiment [1] deals with Klebsiella pneumoniae K97/09. Kind of experiment: Checkerboard synergy assay (FIC index). It is filed as cell-based. The settings on record: K. pneumoniae K97/09. As to the method: In vitro activity and synergy. Minimal inhibitory concentration (MIC) assays were performed using sterile 96-well polypropylene plates in a final volume of […]. Briefly, 50 μL of midlogarithmic phase bacterial cultures were diluted to 5×10^5 CFU/mL in Mueller-Hinton broth (MHB) and then added to 50 μL of the serially diluted antibiotic. The highest A3-APO and other test compound concentration evaluated was 256 mg/L. Cultures were incubated at 37° C. for 16-20 h without shaking. MICs were identified as the lowest antimicrobial concentrations at which turbidity was not observed. Antimicrobial synergy was determined by evaluating the fractional inhibitory concentration (FIC) index and was characterized by a conventional checkerboard assay (Fernandez-Cuenca et al., 2003). Bacteria grown to mid-logarithmic phase in MHB were pre-incubated with serially diluted concentrations of peptides such as A3-APO, and the antimicrobial controls, imipenem, colistin or meropenem.
The sum of the FICs (Σ FIC) was calculated with the equation Σ FIC=FICA+FICB=(CA/MICA)+(CB/MICB), where MICA and MICB are the MICs of antimicrobial A and B alone, respectively, and CA and CB are the concentrations of the drugs when combined, respectively. Synergy was defined as a Σ FICs≤0.5 and additive activity was defined as a Σ FICs>0.5≤1.0.

Experiment [2] deals with Acinetobacter baumannii BAA-1605. It counts as cell-based. The settings on record: A. baumannii BAA-1605.
Description: In vitro activity and synergy. Minimal inhibitory concentration (MIC) assays were performed using sterile 96-well polypropylene plates in a final volume of 100 mL. Briefly, 50 μL of midlogarithmic phase bacterial cultures were diluted to 5×10^5 CFU/mL in Mueller-Hinton broth (MHB) and then added to 50 μL of the serially diluted antibiotic. […] MICs were identified as the lowest antimicrobial concentrations at which turbidity was not observed. Antimicrobial synergy was determined by evaluating the fractional inhibitory concentration (FIC) index and was characterized by a conventional checkerboard assay (Fernandez-Cuenca et al., 2003).
A further experiment deals with A. baumannii ATCC 19606. Kind of experiment: Antibacterial assay (MIC). It is filed as cell-based. The settings on record: A. baumannii ATCC 19606, MHB, 37° C. As to the method: (§1) Antibacterial assay. Antibacterial assays are undertaken to determine the minimal inhibitory concentrations (MIC) as described previouslyl^6.
(§2) Antibacterial activity. Each C-terminal modified PrAMP DTM-linked tetramer is assayed against nosocomial Gram-negative bacteria, including E. coli ATCC 29222, K. pneumoniae ATCC 13883, A. baumannii ATCC 19606 and P. aeruginosa ATCC 47085.

In another experiment the test system is E. coli ATCC 29222. The experiment in a line: Antibacterial assay (MIC). It counts as cell-based. The settings on record: E. coli ATCC 29222, MHB, 37° C. As to the method:
as §1, §2

The test system of the next experiment is K. pneumoniae ATCC 13883. The experiment in a line: Antibacterial assay (MIC). It counts as cell-based. Conditions: K. pneumoniae ATCC 13883, MHB, 37° C. The method, then: as §1, §2
For the next experiment, the system named is P. aeruginosa ATCC 47085. Kind of experiment: Antibacterial assay (MIC). It counts as cell-based. Conditions: P. aeruginosa ATCC 47085, MHB, 37° C. As to the method: as §1, §2
Experiment [3] relates to multidrug-resistant Klebsiella pneumoniae K97/09. Conditions: K. pneumoniae K97/09, compound alone.
For experiment [4], the system named is multidrug-resistant Acinetobacter baumannii BAA-1605. The settings on record: A. baumannii BAA-1605, compound alone.
The subject of a further experiment is K. pneumoniae. Kind of experiment: Synergy results for co-administration of A3-APO (ARV-1501). It counts as cell-based. As to the method:
Restoring antibiotic sensitivity to resistant bacteria. A colistin-resistant, carbapenem-resistant strain of K. pneumonia (K97/09) from a clinical isolate was used to test the effect of A3-APO treatment on antibiotic resistance. An in vitro assay measuring visible bacterial growth in the presence of A3-APO and imipenem or colistin was performed.
Synergy Results for Co-administration of A3-APO (ARV-1501)

The test system of experiment [5] is K. pneumoniae K97/09. The experiment in a line: Bacteremia Synergy Assay 1 (mouse systemic infection). It is filed as in vivo. Conditions: 10 mg/kg sc (Group 4), monotherapy. The method, then: (§3) In vivo Studies. Animals. Assays 1-2. NMRI (Naval Medical Research Institute) BR or CD-1 mice (Toxi-Coop Zrt, Budapest, Hungary) were housed in plastic type 2 cages, 3-5 mice per cage, on softwood granules as bedding. The room was kept between 21° C. and 25° C. with 12 h light:12 h dark cycles. The animals had free access to tap water and pelleted rodent food. Upon completion of the experiments, surviving mice were euthanized by diethyl ether inhalation. Animals were maintained and handled in accordance with the recommendations of the Guidelines for the Care and Use of Laboratory Animals, and the protocols were approved by the Animal Care Committee of Semmelweis University. The planned 15 treatment groups of mice were divided roughly equally into two assays with 8 and 7 treatment groups and untreated controls in each assay for safe and humane handling of large numbers of mice.
(§4) Infection models. NMRI mice weighing approximately 20 g (4 weeks old) were infected by intraperitoneal (ip) injection of 4×10^8 CFU/g K. pneumoniae K97/09. Mice were randomly allocated to 8 and […] groups (5 mice per group).
Bacteremia Synergy Assay 1.
Group 1: phosphate buffered saline (PBS) subcutaneously (sc) 1 h after infection. Group 2: imipenem 30 mg/kg sc at 2, 14 and 26 h after infection. […]
Survival was recorded hourly 24-36 h after infection. […]

The test system of experiment [6] is K. pneumoniae K97/09. The experiment in a line: Bacteremia Synergy Assay 2 (mouse systemic infection). It counts as in vivo. The method, then: as §3, §4
Bacteremia SYNERGY ASSAY 2.
Group 1: PBS sc 1 h after infection. Group 2: Colistin 1 mg/kg sc at 2 and 13 h after infection. Group 3: A3-APO 1 mg/kg im 1 and 12 h after infection. Group 4: A3-APO 1 mg/kg im 1 and 12 h after infection, colistin 1 mg/kg sc at 2 and 13 h after infection. […]

The record followed here is patent US20200323950A1, “ANTIBACTERIAL PEPTIDES AND COMBINATIONS FOR CO-THERAPY” (priority 2017, published 2020).

Values joined by “and” are separate entries in the source; they are usually repeats but may differ in a detail not shown here. Equal values may be shown once. *1 amine or outer side, *2 acyl side, *3 side chain or, on linkers, in order; H or OH if unused. Where a SMILES comes first, the peptide text is derived from it. Bridges are numbered along the chain shown (N, C = ends). Roman numbers before positions name the chains, in order. Where no end group is shown, it is not given here. [ ]: non-standard residue; d: D form. The star is where a group is joined. X2 = O=C1NC(=O)C(SC[C@@H](CO)N[*:2])=C1SC[C@@H](CO)N[*:1]; BMH = O=C1CC([*:1])C(=O)N1CCCCCCN1C(=O)CC([*:2])C1=O; Maleimide(3,4-diyl) = O=C1NC(=O)C([*:2])=C1[*:1]; pXylylene = c1cc(C[*:2])ccc1C[*:1]; aThr = C[C@H](O)[C@H](N)C(=O)O; Ac6c = NC1(C(=O)O)CCCCC1; X1 = C(=C\C[*:2])/C[*:1]; Dab = NCC[C@H](N)C(=O)O; Nva = CCC[C@H](N)C(=O)O; NHNH2 = NN*

With `CCC[C@H](NC(=O)[C@H](CCC(=O)O)NC(=O)[C@@H](N)[C@H](C)O)C(=O)N[C@H](C(=O)N[C@@H](C)C(=O)N[C@@H](CC(C)C)C(=O)N[C@@H](CO)C(=O)N[C@@H](CCCNC(=N)N)C(=O)NC1(C(N)=O)CCCCC1)C(C)C` [Allo-aca] (H-[aThr]E[Nva]VALSR[Ac6c]-NH2; N-terminus and C-terminus assumed), the “improvement in the MIC values when added together with imipenem or colistin” value in experiment [1] and in experiment [2] was “failed to exert any improvement” each time.
As to “I: H-[Ac6c]RPDKPRPYLPRPRPPRPVR[Dab]-NH2 / II: H-[Ac6c]RPDKPRPYLPRPRPPRPVR (amide I:21-II:C) [A3-APO, (H-Chex-Arg-Pro-Asp-Lys-Pro-Arg-Pro-Tyr-Leu-Pro-Arg-Pro-Arg-Pro-Pro-Arg-Pro-Val-Arg)2-Dab]”, the “Antibacterial activity, MIC” value worked out at 8.00 ± 1.09 µM in the experiment on A. baumannii ATCC 19606, 2.58 ± 1.14 µM in the experiment on E. coli ATCC 29222, 1.44 ± 0.12 µM in the experiment with K. pneumoniae ATCC 13883 and 3.13 ± 0.05 µM in the experiment with P. aeruginosa ATCC 47085. Besides, the MIC (in general, the smallest concentration in the dilution series that meets the test's criterion for growth inhibition) in [3] was 32 to 64 µg/mL and 32 µg/mL; in experiment [4], 32 µg/mL.
“I: H-[Ac6c]RPDKPRPYLPRPRPPRPVR[Dab]-NHNH2 / II: H-[Ac6c]RPDKPRPYLPRPRPPRPVR (amide I:21-II:C) [dimer-NHNH2]”: the “Antibacterial activity, MIC” value with A. baumannii ATCC 19606 is 5.31 ± 0.73 µM; in the experiment with E. coli ATCC 29222, 2.99 ± 1.00 µM; in the experiment with K. pneumoniae ATCC 13883, 3.63 ± 0.02 µM; in the experiment on P. aeruginosa ATCC 47085 it was 3.01 ± 0.18 µM.
The like results for “I: H-[Ac6c]RPDKPRPYLPRPRPPRPVR[Dab]C-NH2 / II: H-[Ac6c]RPDKPRPYLPRPRPPRPVR[Dab]C-NH2 / III: H-[Ac6c]RPDKPRPYLPRPRPPRPVR / IV: H-[Ac6c]RPDKPRPYLPRPRPPRPVR (amide I:21-III:C, II:21-IV:C; linker I:22-II:22 via Maleimide(3,4-diyl)) [tetramer-DTM-NH2]” were, in that order, 13.29 ± 0.10 µM, 2.96 ± 0.99 µM, 2.33 ± 0.01 µM and 2.05 ± 0.08 µM.
For “I: [Ac6c]RPDKPRPYLPRPRPPRPVR[Dab] / II: [Ac6c]RPDKPRPYLPRPRPPRPVR[Dab] / III: [Ac6c]RPDKPRPYLPRPRPPRPVR / IV: [Ac6c]RPDKPRPYLPRPRPPRPVR (amide I:21-III:C, II:21-IV:C; linker I:C-II:C via X2) [tetramer-DTM-ol]” the same measures were 11.61 ± 1.44 µM, 3.67 ± 0.25 µM, 2.20 ± 0.01 µM and 1.86 ± 0.07 µM.
Take “I: [Ac6c]RPDKPRPYLPRPRPPRPVR[Dab]C-NHNH2 / II: [Ac6c]RPDKPRPYLPRPRPPRPVR[Dab]C-NHNH2 / III: [Ac6c]RPDKPRPYLPRPRPPRPVR / IV: [Ac6c]RPDKPRPYLPRPRPPRPVR (amide I:21-III:C, II:21-IV:C; linker I:22-II:22 via BMH) [tetramer-bismal-NHNH2]”: the “Antibacterial activity, MIC” value with A. baumannii ATCC 19606 amounted to 10.35 ± 0.22 µM; in the experiment on E. coli ATCC 29222, 3.93 ± 0.04 µM; with K. pneumoniae ATCC 13883, 3.18 ± 0.03 µM; in the experiment on P. aeruginosa ATCC 47085, 1.62 ± 0.11 µM.
The like results for “I: [Ac6c]RPDKPRPYLPRPRPPRPVR[Dab]C-NHNH2 / II: [Ac6c]RPDKPRPYLPRPRPPRPVR[Dab]C-NHNH2 / III: [Ac6c]RPDKPRPYLPRPRPPRPVR / IV: [Ac6c]RPDKPRPYLPRPRPPRPVR (amide I:21-III:C, II:21-IV:C; linker I:22-II:22 via X1) [tetramer-butene-NHNH2]” were, in that order, 1.89 ± 0.63 µM, 0.94 ± 0.04 µM, 0.81 ± 0.02 µM and 0.77 ± 0.02 µM.
Turning to “I: [Ac6c]RPDKPRPYLPRPRPPRPVR[Dab]C-NHNH2 / II: [Ac6c]RPDKPRPYLPRPRPPRPVR[Dab]C-NHNH2 / III: [Ac6c]RPDKPRPYLPRPRPPRPVR / IV: [Ac6c]RPDKPRPYLPRPRPPRPVR (amide I:21-III:C, II:21-IV:C; linker I:22-II:22 via pXylylene) [tetramer-xylene-NHNH2]”, the “Antibacterial activity, MIC” value with A. baumannii ATCC 19606 was found to be 12.70 ± 0.96 µM; in the experiment with E. coli ATCC 29222 it was 6.24 ± 0.53 µM; with K. pneumoniae ATCC 13883 it was 4.49 ± 0.56 µM; with P. aeruginosa ATCC 47085, 1.51 ± 0.33 µM.
Turning to colistin, the “MIC of the antibiotic before co-administration (decrease from)” value with K. pneumoniae (antibiotic without A3-APO) is on record as over 64. The “MIC of the antibiotic on co-administration (decrease to)” value in the experiment on K. pneumoniae (co-administered with A3-APO (ARV-1501)) came out at 1. Besides, in the experiment on K. pneumoniae K97/09 [5], the survival is 60%. Besides, the “reduction of the bacterial burden” value in the experiment on K. pneumoniae K97/09 [6] (colistin 1 mg/kg sc (Group 2), after 6 h) was under 1 log 10 unit. The “survival at 36 h” value in the experiment on K. pneumoniae K97/09 [6] (colistin 1 mg/kg sc twice (Group 2), monotherapy) worked out at 40%. Moreover, the minimal inhibitory concentration (MIC) in [3] was 64 µg/mL; in experiment [4], under 0.5 µg/mL.
